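Results reflect a 48-hour exposure of cells in 96-well plates to compound at five concentrations. TGI denotes the concentration required for complete inhibition of growth.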
What was measured:
Experiment in all cases: DTP human tumour cell line panel, 48 h
[1] = system: 786-0 renal
[2] = system: A498 renal
[3] = system: A549 NSCLC
[4] = system: ACHN renal
[5] = system: BT-549 breast
[6] = system: CAKI-1 renal
[7] = system: CCRF-CEM leukemia
[8] = system: COLO 205 colon
[9] = system: DU-145 prostate
[10] = system: EKVX NSCLC
[11] = system: HCC-2998 colon
[12] = system: HCT-116 colon
[13] = system: HCT-15 colon
[14] = system: HL-60(TB) leukemia
[15] = system: HOP-62 NSCLC
[16] = system: HOP-92 NSCLC
[17] = system: HS 578T breast
[18] = system: HT29 colon
[19] = system: IGROV1 ovarian
[20] = system: K-562 leukemia
[21] = system: KM12 colon
[22] = system: LOX IMVI melanoma
[23] = system: M14 melanoma
[24] = system: MCF7 breast
[25] = system: MDA-MB-231 breast
[26] = system: MDA-MB-435
[27] = system: MDA-N
[28] = system: MOLT-4 leukemia
[29] = system: NCI-H226 lung
[30] = system: NCI-H23 lung
[31] = system: NCI-H460 lung
[32] = system: NCI-H522 lung
[33] = system: NCI/ADR-RES ovarian
[34] = system: OVCAR-3 ovarian
[35] = system: OVCAR-4 ovarian
[36] = system: OVCAR-5 ovarian
[37] = system: OVCAR-8 ovarian
[38] = system: PC-3 prostate
[39] = system: RXF 393 renal
[40] = system: SF-268 CNS
[41] = system: SF-295 CNS
[42] = system: SF-539 CNS
[43] = system: SK-MEL-2 melanoma
[44] = system: SK-MEL-28 melanoma
[45] = system: SK-MEL-5 melanoma
[46] = system: SK-OV-3 ovarian
[47] = system: SN12C renal
[48] = system: SNB-19 CNS
[49] = system: SR leukemia
[50] = system: SW-620 colon
[51] = system: T-47D breast
[52] = system: TK-10 renal
[53] = system: U251 CNS
[54] = system: UACC-257 melanoma
[55] = system: UACC-62 melanoma
[56] = system: UO-31 renal
[57] = system: RPMI-8226 leukemia
[58] = system: SNB-75 CNS
[59] = system: MALME-3M melanoma

Measured: TGI

CN1C(NN)=NS(=O)(=O)c2ccccc21
not listed: [57] | [58] | [59]
> 100 µM: all other assays above

Nc1ncnc2oc(-c3cccs3)nc12
not listed: [6] | [28] | [46] | [58] | [59]
> 100 µM: all other assays above

Cc1cn(CCOCCOC(=O)NC(CCCN=C(N)N)C(=O)O)c(=O)[nH]c1=O (configuration not stated)
not listed: [6] | [32] | [37] | [45] | [59]
> 100 µM: all other assays above

NC(=O)NN=C1C[C@H]2CCCC[C@H]2C1
not listed: [7] | [30] | [39] | [59]
> 100 µM: all other assays above

c1ccc(N=C2SC(c3ccccc3)(c3ccccc3)c3ccccc32)cc1
not listed: [49]
> 100 µM: all other assays above

Source: PubChem BioAssay (NCI)
